Experimental data from patent US10542745B2, “Portable device for ex vivo stimulation of whole blood” (Hitachi Chemical Co., Ltd., priority 2010, dated 2020).

Legend:
Assay type in all cases: cell-based
[1] = system: blood; assay: Ex vivo stimulation of blood in strip wells, then 4° C. storage; ACTB, p21 and PUMA mRNA quantified; conditions: for levels of both p21 and PUMA after 3 days of post-stimulation storage: stored at 4° C. for 3 days after stimulation, higher Ct values
Procedure: (§1) Briefly, 96-well filterplates were assembled with leukocyte reduction membranes (Leukosorb; Pall) and placed over oligo(dT)-immobilized collection plates. 150 μL of 5 mmol/L Tris (pH 7.4) was applied to wet the filter membranes. After centrifugation at 120 g for 1 min at 4° C. to remove the Tris solution from the membranes, 50 μL of the stimulated whole blood samples was applied to each well and immediately centrifuged at 120 g for 2 min at 4° C. The wells were then washed once with 300 μL of phosphate-buffered saline. After centrifugation at 2000 g for 5 min at 4° C. to remove the saline solution, 60 μL of stock lysis buffer [5 g/L N-lauroylsarcosine, 4× standard saline citrate, 10 mmol/L Tris-HCl (pH 7.4), 1 mmol/L EDTA, 1 mL/L IGEPAL CA-630 (substitute of NP-40), 1.79 mol/L guanidine thiocyanate (all from Sigma)], supplemented with 10 mL/L 2-mercaptoethanol (Bio-Rad), 0.5 g/L proteinase K (Pierce), 0.1 g/L salmon sperm DNA (5 Prime Eppendorf/Brinkman), 0.1 g/L Escherichia coli tRNA (Sigma), 5 nmol/L each of the specific reverse primers, and 10^10 molecules/L of synthetic RNA34 (as external control), was added to each well of the filterplates. The plates were then incubated at 37° C. for 10 min, placed over oligo(dT)-immobilized collection microplates (GenePlate; RNAture), and centrifuged at 2000 g for 5 min at 4° C. After overnight storage at 4° C., the microplates were washed 3 times with 100 μL of plain lysis buffer and then 3 times with 150 μL of wash buffer [0.5 mol/L NaCl, 10 mmol/L Tris (pH 7.4) 1 mmol/L EDTA] at 4° C.
cDNA was synthesized directly in each well by addition of 30 μL of buffer containing 1× reverse transcription buffer [50 mM KCl, 10 mM Tris-HCl (pH 8.3), 5.5 mM MgCl2, 1 nL/μL Tween 20], 1.25 mM each deoxynucleoside triphosphate, 4 units of rRNasin, and 80 U of MMLV reverse transcriptase (Promega; without primers) and incubation at 37° C. for 2 h. From each 30-μL reaction, 4 μL of cDNA was transferred directly to 384-well PCR plates, and 5 μL of TaqMan universal master mixture (Applied Biosystems) and 1 μL of 5 μM each of the forward and reverse primers for each mRNA or beta-actin were added. PCR was carried out in a PRISM 7900HT (Applied Biosystems), with 1 cycle of 95° C. for 10 min followed by 45 cycles of 95° C. for 30 s, 55° C. for 30 s, and 60° C. for 1 min. Each gene was amplified in separate wells. The cycle threshold (Ct), i.e., the cycle at which certain amounts of PCR products (based on fluorescence) were generated, was determined with analytical software (SDS; Applied Biosystems). The ΔCt were determined by subtracting each Ct of PHA-treated sample from each Ct of PBS-treated control sample, and the fold increase was calculated by 2^-ΔCt.
In order to evaluate the stability of samples after stimulation, blood was stimulated with DNR (10 μM in final concentration), AraC (100 μM in final concentration), or PBS in strip wells for 4 hours at 37° C., and then stored at 4° C. for 0-3 days. After the 4° C. incubation, the samples were stored in a −80° C. freezer until analysis. These experimental conditions are designed to represent the possible conditions a sample would be exposed to during transport in the portable incubation devices described herein. Three mRNAs (ACTB, p21, and PUMA) were quantified as described above.

[2] = system: blood; assay: Time course of mRNA induction in blood at two incubation temperatures (ACTB, IL2, CXCL9); conditions: strip wells, 42° C. vs 37° C., 0-9 hours; FIGS. 12C and 12F
Procedure: Briefly, 96-well filterplates were assembled with leukocyte reduction membranes (Leukosorb; Pall) and placed over oligo(dT)-immobilized collection plates. 150 μL of 5 mmol/L Tris (pH 7.4) was applied to wet the filter membranes. After centrifugation at 120 g for 1 min at 4° C. to remove the Tris solution from the membranes, 50 μL of the stimulated whole blood samples was applied to each well and immediately centrifuged at 120 g for 2 min at 4° C. The wells were then washed once with 300 μL of phosphate-buffered saline. […]
(§2) cDNA was synthesized directly in each well by addition of 30 μL of buffer containing 1× reverse transcription buffer [50 mM KCl, 10 mM Tris-HCl (pH 8.3), 5.5 mM MgCl2, 1 nL/μL Tween 20], 1.25 mM each deoxynucleoside triphosphate, 4 units of rRNasin, and 80 U of MMLV reverse transcriptase (Promega; without primers) and incubation at 37° C. for 2 h. […] The cycle threshold (Ct), i.e., the cycle at which certain amounts of PCR products (based on fluorescence) were generated, was determined with analytical software (SDS; Applied Biosystems). The ΔCt were determined by subtracting each Ct of PHA-treated sample from each Ct of PBS-treated control sample, and the fold increase was calculated by 2^-ΔCt.
The time course of induction was also evaluated for two different incubation temperatures. […] ACTB, IL2, andCXCL9 mRNA were quantified.

[3] = system: blood; assay: IFNa2b stimulation of blood: vacuum tube vs multi-well strip, immediate vs delayed
Procedure: as §1, with “After overnight storage at 4° C., the microplates were washed 3 times with 100 μL of plain lysis buffer and then 3 times with 150 μL of wash buffer [0.5 mol/L NaCl, 10 mmol/L Tris (pH 7.4) 1 mmol/L EDTA] at 4° C.” left out
as §2, with “2^-ΔCt. […]” for “2^-ΔCt.”

[4] = system: blood; assay: Induction of IL2 or CXCL9 after incubation in the portable device vs controlled incubators; conditions: FIGS. 13A and 13B
Procedure: FIGS. 13A and 13B depict a comparison of the level of induction of 1L2 or CXCL9 when stimulated by PHA or IFN alpha and then incubated in the portable device disclosed herein or in controlled incubators (at a variety of temperatures). […] This again represents the degree of flexibility in temperatures and times that can be used (as disclosed above) to perform ex vivo stimulation of blood samples.

[5] = system: blood; assay: PHA stimulation of blood: PHA-containing collection tubes vs multi-well strip; conditions: 37° C. for 4 hours; FIGS. 9A-9D
Procedure: Blood collection tubes were manufactured as described above. Three tubes were stored at 4° C. (tubes PHA 4C #1, #2, and #3 in FIG. 9) or room temperature (PHA RT in FIG. 9) for 20 days. Blood was then drawn into 6 tubes: a control heparin tube, a plain heparin tube, and 4 PHA-containing tubes. The blood from the control heparin tube was stimulated (by PBS or PHA) in micro-plate tube strips (3 wells each, 60 μL blood/well). The remaining 5 tubes were incubated at 37° C. for 4 hours. Various mRNA were quantified by using SYBR green real time PCR as described previously (Mitsuhashi M et al. Clin. Chem. 52:634-642, 2006). […]
as §2

[6] = DNR 10 μM or AraC 100 μM final, 4 hours at 37° C., vs PBS
[7] = DNR 10 μM or AraC 100 μM final, 4 hours at 37° C., vs PBS, FIGS. 11A-11B
[8] = blood stored at 4° C. for 6 hours before ex vivo stimulation

**Q.** With `Nc1ccn([C@@H]2O[C@H](CO)[C@@H](O)[C@@H]2O)c(=O)n1` [AraC, cytarabine] as the molecule, how does the PUMA expression induction [1, 6] read?
**A.** Its PUMA expression induction is “induced”.

**Q.** And the “beta actin mRNA induction” value [1, 7]?
**A.** The value was “not induced”.

**Q.** What about the “levels of both p21 and PUMA after 3 days of post-stimulation storage” value [1] of the same molecule?
**A.** The value was “appear to have decreased”.

**Q.** For `COc1cccc2c1C(=O)c1c(O)c3c(c(O)c1C2=O)C[C@@](O)(C(C)=O)C[C@@H]3O[C@H]1C[C@H](N)[C@H](O)[C@H](C)O1` [DNR, daunorubicin], which PUMA expression induction [1, 6] is on record?
**A.** The PUMA expression induction was “induced”.

**Q.** And the “beta actin mRNA induction” value [1, 7]?
**A.** Its value is “not induced”.

**Q.** What about the “p21 mRNA induction” value [1, 7] of the same molecule?
**A.** The value was “significant induction”.

**Q.** And the “levels of both p21 and PUMA after 3 days of post-stimulation storage” value [1]?
**A.** Its value is “appear to have decreased”.

**Q.** What does the source list for interferon alpha 2b [IFNa2b]?
**A.** CXCL-9 induction [2]: induced to a similar extent; performance of IFNa2b tube vs conventional IFNa2b stimulation in strip wells ([3]; 2 hours at 37° C. immediately after blood draw, FIGS. 10A-10C): identical; CXCL10 induction [3, 8]: less induction; GIP2 induction [3, 8]: less induction; CXCL9 induction, portable device vs controlled incubators [4]: not significantly different

**Q.** phytohemaglutinin [PHA] was tested. Which “mRNA (beta-actin, interferon gamma, interleukin 2, GM-CSF): stimulation in multi-well strip vs PHA-containing blood collection tubes” value [5] did it give?
**A.** Its value is “no differences were detected”.

**Q.** What about the “IL2 induction, portable device vs controlled incubators” value [4] of the same molecule?
**A.** Its value is “not significantly different”.
